Source: patent publication US5411969A, “Antihyperlipidemic/antioxidant dihydroquinolines” (Bristol-Myers Squibb Company, priority 1993, dated 1995)

What was measured:
LDL = test: In vitro LDL oxidation (Cu++), conjugated diene formation; format: biochemical, rabbit; conditions: for LDL Oxd. Inhib. mean lag ratio: 10 μM, rabbit plasma LDL, Cu++, treated/control lag time
[1] = Redox potential by cyclic voltammetry; format: physicochemical; conditions: for Oxd. Potential: cyclic voltammetry
Excerpt: One method for the measurement of general antioxidant capacity is stopped-flow kinetic analysis. (Mukai, et al., Bull. Chem. Soc. Jpn., 59: 3113-3116 (1986); Mukai, et al., J. Org. Chem., 54: 557-560 (1989); Mukai, et al. J. Org. Chem., 53: 430-432 (1988)). This is a sophisticated setup wherein, one measures radical transfer from a stable radical, (for example 2,6-di-tert-butyl-4-(4-methoxyphenyl)phenoxy), to a test compound spectrophotometrically as a function of time. […] (Mukai, et al., Bull. Chem. Soc. Jpn., 59: 3113-3116 (1986); Mukai, et al., J. Org. Chem., 54: 557-560 (1989); Mukai, et al. J. Org. Chem., 53: 430-432 (1988)). Voltammetry has been used by Moldeus et al. to study the antioxidant capacity of structurally related dibenzo[1,4]dichalcogenines as inhibitors of lipid peroxidation. (Cotgreave, et al., Biochem. Pharm., 42: 1481-85 (1991)). In their case, a strong correlation between voltammetric potential and the ability to inhibit lipid peroxidation was observed.
(Mukai, et al., J. Org. Chem., 53: 430-432 (1988); Mukai, et al., J. Org. Chem., 54: 552-556 (1989); Mukai, et al., J. Org. Chem., 56: 4188-4192 (1991)).

[2] = tested on: human hepatoma HepG2 cells; test: HepG2 cell culture model: cholesterol synthesis by 14C-acetate incorporation; format: cell-based; conditions: 4 h incubation, read-out: Cholesterol Biosynthesis
Description: (§1) The human hepatoma HepG2 cell culture model was employed to compare the intrinsic activities of the representative compounds of the present invention relative to the tocotrienols. HepG2 cells were incubated with the indicated compounds for 4 hours at 10 μM. Cholesterol synthesis was assayed by ^14 C-acetate incorporation over the final hour of incubation, and HMG-CoA reductase suppression (specific activity) was assayed in the microsomal fraction isolated from parallel cultures at the end of the 4 hour incubation.

HMG-CoA reductase [3] = test: HepG2 cell culture model: HMG-CoA reductase suppression (specific activity, microsomal fraction); format: cell-based, human; conditions: 10 μM, 4 h incubation, HepG2 cells
Description: as §1

[4] = In vivo hypocholesterolemic activity in normocholesterolemic chickens: total serum cholesterol and HDL/LDL cholesterol pools; design: species or system chicken; conditions: male chickens, orally dosed for 4 weeks at 4 mg/kg/day
Description: (§2) Hypocholesterolemic activity was evaluated for representative compounds of the present invention using γ-tocotrienol as a control in normocholesterolemic chickens. Newborn male chicks (6-10 for each group) were raised on a standard corn-soybean-based control diet for two weeks and then were switched to either control or experimental diets for four weeks. Drug treatment consisted of the addition of test compound to the corn-soybean-based. At the end of the feeding period, all the birds were fasted (about 36 hours) and refed (about 48 hours) to induce cholesterolgenic enzymes prior to sacrifice. The specific activity of HMG-CoA reductase, total serum cholesterol levels, and HDL/LDL cholesterol pools were examined (Table II).
(§3) Effects of Compounds of the present invention on Lipid
(§4) Parameters in Male Chickens
(§5) Orally dosed for 4-weeks at 4 mg/kg/day

hamster LDL = test: Ex vivo LDL lipid peroxidation assay in hamsters (Cu++ oxidation; conjugated dienes or lipid peroxides); conditions: 17 days; for Conj. Dienes lag ratio: treated/control
Description: As a secondary screen, test compounds are evaluated ex vivo for their oral effectiveness to inhibit LDL oxidation. […] Again, the conjugated diene assay is used to assess lipid peroxidation.
Hamsters (n=6 per group) were placed on an atherogenic diet (0.4% cholesterol+10% vitamin E stripped corn oil), and were orally dosed for 17 days with the indicated compounds at 75 mpk/day. The resistance of hamster LDL to copper-dependent oxidation in vitro was determined by conjugated dienes or lipid peroxides.

HMG-CoA reductase [5] = test: In vivo evaluation in normocholesterolemic chickens: specific activity of HMG-CoA reductase; design: species or system chicken; conditions: male chickens, orally dosed for 4 weeks at 4 mg/kg/day
Description: as §2, §3, §4, §5

cholesterol fed rabbits = conditions: cited from earlier work
[6] = in vivo; cited from earlier work

SMILES | LDL Oxd. Inhib. mean lag ratio (LDL) | activity at 10 µM [2] [%] | Tot.-C [4] | lipid peroxide formation in LDL, % of Control, 1.5 h (hamster LDL; 50 mg/kg/d oral) | lipid peroxide formation in LDL, % of Control, 3.0 h (hamster LDL; 50 mg/kg/d oral) | Conj. Dienes lag ratio (hamster LDL; 50 mg/kg/d oral) | also measured
Cc1cc(C(C)(C)C)c(O)c(C(C)(C)C)c1 [Butylatedhydroxytoluene] | 1.38 |  |  |  |  |  | 
CC(C)=CCC/C(C)=C/CC/C(C)=C/CCCOc1ccc2c(c1)C(C)=CC(C)(C)N2 [Compound 4, 1,2-Dihydro-2,2,4-Trimethyl-6-[(5,9,13-Trimethyl-4(E),8(E),1 2-tetradecatrienyl)oxy]Quinoline] | 1.80 | 48 | 65.9 % of Control | 3 % of Control | 31 % of Control | 1.57 | Oxd. Potential [1]: 0.47 Volts; oxidation potential compared with standard reference agents ([1]; over standard reference agents, in words): lower oxidation potential; HMGR Suppression (HMG-CoA reductase [3]): 40% of Control; HDL-C [4]: 89.0 % of Control; LDL-C [4]: 45.3 % of Control; HMGR (HMG-CoA reductase [5]): 83.8 % of Control; LDL protective capacity compared with standard reference agents (LDL; in vitro and ex vivo (Tables III, IV), in words): superior LDL protective capacity
CC(C)=CCC/C(C)=C/CC/C(C)=C/CCCSc1ccc2c(c1)C(C)=CC(C)(C)N2 [Compound 8, 1,2-Dihydro-2,2,4-Trimethyl-6-[(5,9,13-Trimethyl-4(E),8(E),1 2-tetradecatrienyl)thio]Quinoline] | 1.64 | 3 | 100.9 % of Control |  |  |  | Oxd. Potential [1]: 1.20 Volts; HDL-C [4]: 98.2 % of Control; LDL-C [4]: 99.1 % of Control
CC(C)=CCC/C(C)=C/CC/C(C)=C/CCCCc1ccc2c(c1)C(C)=CC(C)(C)N2 [Compound 11, 1,2-Dihydro-2,2,4-Trimethyl-6-[6,10,14-Trimethyl-5(E),9(E), 13-Pentadecatrienyl]Quinoline] |  | 89 |  |  |  |  | 
CC1=CC(C)(C)Nc2ccc(OCCC/C=C(\C)CCc3cccc(C(F)(F)F)c3)cc21 [Compound 18] |  | 42 | 61.2 % of Control |  |  |  | HDL-C [4]: 93.8 % of Control; LDL-C [4]: 26.0 % of Control; HMGR (HMG-CoA reductase [5]): 66.4 % of Control
CCOc1ccc2c(c1)C(C)=CC(C)(C)N2 [ETHOXYQUIN] | 1.21 |  |  |  |  |  | lipid peroxide formation in LDL, % of Control, 1.5 h (hamster LDL; 75 mg/kg/d oral): 0 % of Control; lipid peroxide formation in LDL, % of Control, 3.0 h (hamster LDL; 75 mg/kg/d oral): 13 % of Control; Conj. Dienes lag ratio (hamster LDL; 75 mg/kg/d oral): 1.81
CC1(C)C=C(CS(=O)(=O)O)c2cc(Cc3ccc4c(c3)C(CS(=O)(=O)O)=CC(C)(C)N4)ccc2N1 [MTDQ-DA] |  |  |  |  |  |  | effects on various lipid parameters (cholesterol fed rabbits; cholesterol fed rabbits): fairly modest effects on various lipid parameters; plaque progression (cholesterol fed rabbits; relative to the cholesterol fed rabbit controls): completely inhibited plaque progression
O=C1O[C@H]([C@@H](O)CO)C(O)=C1O [Na Ascorbate] |  |  |  | 8 % of Control | 91 % of Control | 1.33 | 
CC(C)(Sc1cc(C(C)(C)C)c(O)c(C(C)(C)C)c1)Sc1cc(C(C)(C)C)c(O)c(C(C)(C)C)c1 [PROBUCOL, 4,4'-[(1-methylethylidene)bis(thio)]-bis[2,6-bis(1,1-dimethylethyl)]] |  |  |  | 48 % of Control | 93 % of Control |  | bioavailability [6]: suffers from bioavailability problems
Cc1c(C)c2c(c(C)c1O)CCC(C)(CCCC(C)CCCC(C)CCCC(C)C)O2 (stereo not drawn) [α-Tocopherol] | 1.01 |  |  | 15 % of Control | 36 % of Control | > 3 | 
Cc1c(O)cc2c(c1C)OC(C)(CCCC(C)CCCC(C)CCCC(C)C)CC2 (centres unmarked) [γ-Tocopherol] | 1.17 |  |  |  |  |  | 
CC(C)=CCC/C(C)=C/CC/C(C)=C/CCC1(C)CCc2cc(O)c(C)c(C)c2O1 (centres unmarked) [γ-Tocotrienol] | 1.27 | 29 | 76.3 % of Control | 7 % of Control | 67 % of Control | 1.48 | HMGR Suppression (HMG-CoA reductase [3]): 65% of Control
